Source: US6068845A, “Inhibition of abnormal accumulation of extra-cellular matrices” (Institute for Advanced Skin Research Inc., priority 1996, dated 2000)

What was measured:
[1] = test system: Human newborn dermal fibroblasts (NB1RBG); experiment: Inhibitory activity on the extracellular matrices production of fibroblasts with TGF-β, dye (Crystal Violet) staining method; type: cell-based; details: Fibroblast, 120 h
Description: (§1) Human newborn dermal fibroblasts (NB1RBG) (obtained from the Institute of Physical and Chemical Research) was subcultured in DMEM medium containing 10 % fetal bovine serum for provision to the test.
(§2) 2×10^4 NB1RBG cells per well were incubated in flat-bottomed 96-well microtiter plates containing 100 μl/well of each of DMEM media each containing 1 % fetal bovine serum and containing one of the test samples and TGF-β (5 ng/ml), at 37° C.-5 % CO2 for 5 days. A group not containing any test sample or TGF-β was also prepared, and incubation thereof was carried out at the same time with the test groups. After the completion of the incubation, the flat-bottomed 96-well microtiter plates on which the adhered cells and the extracellular matrices were adhered were stained with the following two methods for evaluation, respectively.
First, the culture supernatants were removed, the wells were washed with phosphate-buffered physiological saline, 100 μl/well of 0.05 % Crystal Violet-20 % ethanol staining solution was added, and the mixtures were left alone at room temperature for 10 minutes. Then, the plates were washed with flowing water and air dried, the remaining Crystal Violet was dissolved with 100 μl/well of methanol, and the absorbance at O.D. 570-690 was measured by a plate reader. The inhibition percentages of the production of extracellular matrices in an unstimulating state and in a TGF-β-stimulating state were calculated according to the following equations.
(§3) The inhibition percentage of the production of extracellular matrices in an unstimulating state (%) [formula] The inhibition percentage of the production of extracellular matrices in a TGF-β-stimulating state (%) [formula] A: The absorbance of a group containing only the solvent with which the test sample was prepared, and not containing TGF-β.
B: The absorbance of a group containing a test sample, but not containing TGF-β.
C: The absorbance of a group containing the solvent with which the test sample was prepared, and TGF-β.
D: The absorbance of a group containing a test sample and TGF-β.

[2] = test system: Human newborn dermal fibroblasts (NB1RBG); experiment: Inhibitory activity on the extracellular matrices production of fibroblasts with TGF-β, collagen staining method (anti-human type I collagen antibody; type I collagen sedimentation); type: cell-based; details: Fibroblast, 120 h
Description: Test samples used were Intin-koo extract (Preparation example 1), Forsythia suspensa VAHL. extract (Preparation example 2), Sophora flavescens AITON. extract (Preparation example 3), Rheum palmatum L. extract (Preparation example 4), Glycyrrhiza alabra L. var. glandulifera Regel et Herder extract (Preparation example 5), Goboosi extract with water (Preparation example 6), Goboosi extract with ethanol (Preparation example 7), zhimu extract (Preparation example 8), Dokkatu extract (Preparation example 9), mutong extract (Preparation example 10), soozyutu extract (Preparation example 11), o-phenanthroline (produced by Dojin Chemical Co.: special grade chemical), 2,2'-dipyridyl (produced by Aldrich Chemical Co.) and malotilate (extracted from Kantec tablet produced by Daiichi Pharmaceutical Co.).
as §1, §2
(b) Staining with anti-collagen antibody
First, the culture supernatants were removed, the wells were washed with phosphate-buffered physiological saline, and fixation was carried out with methanol under ice cooling for 10 minutes. Then, blocking was made with milk protein solution, Block Ace (produced by DAINIPPON PHARMACEUTICAL CO.), and rabbit anti-human type I collagen antibody (produced by CHEMICON CO.), biotin-labeled anti-rabbit immunoglobulin (produced by Amersham CO.) and avidin-biotin-labeled peroxidase complex (produced by Amersham CO.) were successively reacted to enzyme-label the sedimented type I collagen. 100 μl/well of 0.1 M citric acid phosphate buffer (pH 4.0) containing 2.5 mM 2,2'-azino-bis(3-ethylbenzothia-zoline-6-sulfate) (produced by SIGMA CO.) and 0.015 % H2 O2 was reacted therewith, and one hour later, absorbance at O.D. 415 was measured by a plate reader. The inhibition percetages of the type I collagen sedimentation in an unstimulating state and in a TGF-β-stimulating state were calculated according to the following equations.
as §3, with “matrices in TGF-β-stimulating state” for “matrices in a TGF-β-stimulating state”, “(%) [formula] E: The absorbance” for “(%) [formula] A: The absorbance”
F: The absorbance of a group containing a test sample, but not containing TGF-β.
G: The absorbance of a group containing the solvent with which the test sample was prepared, and TGF-β.
H: The absorbance of a group containing a test sample and TGF-β.

[3] = test system: dermal fibrosis induced with bleomycin; experiment: Inhibitory activity on the production of collagen in dermal fibrosis model induced with bleomycin; type: in vivo, Hos:hr-1 male hairless mice; details: bleomycin 10 mg/kg/day i.p. 10 days, day 30
Description: Hos:hr-1 male hairless mice (5 weeks old) were used.
10 mg/kg/day portions of bleomycin were intraperitoneally administered to the hairless mice for 10 successive days. 0.1 ml Portions of ethanol solutions or Vaseline ointments of the Sophora flavescens AITON. extraction, the Rheum palmatum L. extract, o-phenanthroline and malotilate were applied onto the back skins every day from the start of the test, respectively. 30 Days later from the start of the test, the back skins were excised. The amounts of collagen in the excised skins were assayed using hydroxyproline amount as an index.
The inhibition percentage of dermal fibrosis with bleomycin was caluculated according to the following equation.
Inhibition percentage of dermal fibrosis (%) [formula] J: Hydroxyproline amount in the untreated group K: Hydroxyproline amount in the group of bleomycin administration+application of the base alone
L: Hydroxyproline amount in the group of bleomycin administration+application of the drug

[4] = 1 × 10^-4 M, TGF-β 5 ng/ml, 5 days, read-out: Inhibition percentage of the extracellular matrices production, dye staining method, TGF-β (+)
[5] = 1 × 10^-4 M, unstimulated, 5 days, read-out: Inhibition percentage of the extracellular matrices production, dye staining method, TGF-β (-)
[6] = 1 × 10^-5 M, TGF-β 5 ng/ml, 5 days, read-out: Inhibition percentage of the extracellular matrices production, dye staining method, TGF-β (+)
[7] = 1 × 10^-5 M, unstimulated, 5 days, read-out: Inhibition percentage of the extracellular matrices production, dye staining method, TGF-β (-)
[8] = 1 × 10^-6 M, TGF-β 5 ng/ml, 5 days, read-out: Inhibition percentage of the extracellular matrices production, dye staining method, TGF-β (+)
[9] = 1 × 10^-6 M, unstimulated, 5 days, read-out: Inhibition percentage of the extracellular matrices production, dye staining method, TGF-β (-)
[10] = 1 × 10^-4 M, TGF-β 5 ng/ml, 5 days, read-out: Inhibition percentage of the extracellular matrices production, collagen staining method, TGF-β (+)
[11] = 1 × 10^-4 M, unstimulated, 5 days, read-out: Inhibition percentage of the extracellular matrices production, collagen staining method, TGF-β (-)
[12] = 1 × 10^-5 M, TGF-β 5 ng/ml, 5 days, read-out: Inhibition percentage of the extracellular matrices production, collagen staining method, TGF-β (+)
[13] = 1 × 10^-5 M, unstimulated, 5 days, read-out: Inhibition percentage of the extracellular matrices production, collagen staining method, TGF-β (-)
[14] = 1 × 10^-6 M, TGF-β 5 ng/ml, 5 days, read-out: Inhibition percentage of the extracellular matrices production, collagen staining method, TGF-β (+)
[15] = 1 × 10^-6 M, unstimulated, 5 days, read-out: Inhibition percentage of the extracellular matrices production, collagen staining method, TGF-β (-)
[16] = read-out: Inhibition percentage of the extracellular matrices production, dye staining method, TGF-β (+)
[17] = read-out: Inhibition percentage of the extracellular matrices production, dye staining method, TGF-β (-)
[18] = read-out: Inhibition percentage of the extracellular matrices production, collagen staining method, TGF-β (+)
[19] = read-out: Inhibition percentage of the extracellular matrices production, collagen staining method, TGF-β (-)

SMILES: CC(C)OC(=O)C(C(=O)OC(C)C)=C1SC=CS1 [Malotilate, malotilate]
- inhibition at 100 µM [1, 4]: 92%
- inhibition at 100 µM [1, 5]: 20%
- inhibition at 10 µM [1, 6]: 53%
- inhibition at 10 µM [1, 7]: 23%
- inhibition at 1 µM [1, 8]: 18%
- inhibition at 1 µM [1, 9]: 21%
- inhibition at 100 µM [2, 10]: 98%
- inhibition at 100 µM [2, 11]: 7%
- inhibition at 10 µM [2, 12]: 68%
- inhibition at 10 µM [2, 13]: 6%
- inhibition at 1 µM [2, 14]: 20%
- inhibition at 1 µM [2, 15]: 9%
- Hydroxyproline amount per weight of dried skin ([3]; 5% applied to back skin daily): 1.66 ± 0.25 µg/mg
- Inhibition percentage of dermal fibrosis ([3]; 5% applied to back skin daily): 52.2%
- Hydroxyproline amount per weight of dried skin ([3]; 10% applied to back skin daily): 1.47 ± 0.19 µg/mg
- Inhibition percentage of dermal fibrosis ([3]; 10% applied to back skin daily): 80.6%

SMILES: c1cnc2c(c1)ccc1cccnc12 [o-Phenanthroline, o-phenanthroline]
- inhibition at 100 µM [1, 4]: 95%
- inhibition at 100 µM [1, 5]: 0%
- inhibition at 10 µM [1, 6]: 86%
- inhibition at 10 µM [1, 7]: 0%
- inhibition at 1 µM [1, 8]: 1%
- inhibition at 1 µM [1, 9]: 7%
- inhibition at 100 µM [2, 10]: 100%
- inhibition at 100 µM [2, 11]: 20%
- inhibition at 10 µM [2, 12]: 90%
- inhibition at 10 µM [2, 13]: 16%
- inhibition at 1 µM [2, 14]: 27%
- inhibition at 1 µM [2, 15]: 11%
- Hydroxyproline amount per weight of dried skin ([3]; 5% applied to back skin daily): 1.72 ± 0.16 µg/mg
- Inhibition percentage of dermal fibrosis ([3]; 5% applied to back skin daily): 43.3%
- Hydroxyproline amount per weight of dried skin ([3]; 10% applied to back skin daily): 1.43 ± 0.10 µg/mg
- Inhibition percentage of dermal fibrosis ([3]; 10% applied to back skin daily): 86.6%

SMILES: c1ccc(-c2ccccn2)nc1 [2,2'-Dipyridyl, 2,2'-dipyridyl]
- inhibition at 1 µM [1, 16]: 7%
- inhibition at 10 µM [1, 16]: 7%
- inhibition at 100 µM [1, 16]: 84%
- inhibition at 1 µM [1, 17]: 5%
- inhibition at 10 µM [1, 17]: 25%
- inhibition at 100 µM [1, 17]: 44%
- inhibition at 1 µM [2, 18]: 14%
- inhibition at 10 µM [2, 18]: 30%
- inhibition at 100 µM [2, 18]: 77%
- inhibition at 1 µM [2, 19]: 10%
- inhibition at 10 µM [2, 19]: 15%
- inhibition at 100 µM [2, 19]: 18%
